Experiments:
Conditions in all cases: 72 h
Caco-2 [1] = assay: cell viability relative to DMSO; higher = less toxic
Calu-3 [2] = assay: as above
HepG2 [3] = assay: as above
U2OS [4] = assay: as above
Vero E6 [5] = assay: as above
Caco-2 [6] = assay: relative viability EC50 (midpoint between 100% and the lowest measured viability); higher = less toxic
Calu-3 [7] = assay: as above
HepG2 [8] = assay: as above
U2OS [9] = assay: as above
Vero E6 [10] = assay: as above
Caco-2 [11] = assay: drug sensitivity score (DSS) for viability; higher = more toxic; extreme values may be limits of the assay
Calu-3 [12] = assay: as above
HepG2 [13] = assay: as above
U2OS [14] = assay: as above
Vero E6 [15] = assay: as above

| SMILES | cell viability (Caco-2 [1]; 1 nM) | cell viability (Caco-2 [1]; 10 nM) | cell viability (Caco-2 [1]; 100 nM) | cell viability (Caco-2 [1]; 1000 nM) | cell viability (Caco-2 [1]; 10000 nM) | cell viability (Calu-3 [2]; 1 nM) | cell viability (Calu-3 [2]; 10 nM) | cell viability (Calu-3 [2]; 100 nM) | cell viability (Calu-3 [2]; 1000 nM) | cell viability (Calu-3 [2]; 10000 nM) | cell viability (HepG2 [3]; 1 nM) | cell viability (HepG2 [3]; 10 nM) | cell viability (HepG2 [3]; 100 nM) | cell viability (HepG2 [3]; 1000 nM) | cell viability (HepG2 [3]; 10000 nM) | cell viability (U2OS [4]; 1 nM) | cell viability (U2OS [4]; 10 nM) | cell viability (U2OS [4]; 100 nM) | cell viability (U2OS [4]; 1000 nM) | cell viability (U2OS [4]; 10000 nM) | cell viability (Vero E6 [5]; 1 nM) | cell viability (Vero E6 [5]; 10 nM) | cell viability (Vero E6 [5]; 100 nM) | cell viability (Vero E6 [5]; 1000 nM) | cell viability (Vero E6 [5]; 10000 nM) | relative viability EC50 (Caco-2 [6]) | relative viability EC50 (Calu-3 [7]) | relative viability EC50 (HepG2 [8]) | relative viability EC50 (U2OS [9]) | relative viability EC50 (Vero E6 [10]) | drug sensitivity score (Caco-2 [11]) | drug sensitivity score (Calu-3 [12]) | drug sensitivity score (HepG2 [13]) | drug sensitivity score (U2OS [14]) | drug sensitivity score (Vero E6 [15]) |
| --- | --- | --- | --- | --- | --- | --- | --- | --- | --- | --- | --- | --- | --- | --- | --- | --- | --- | --- | --- | --- | --- | --- | --- | --- | --- | --- | --- | --- | --- | --- | --- | --- | --- | --- | --- |
| CN(C)C(=O)Nc1cccc(-c2ccc(N(C)C)cc2)c1 [atglistatin] | 84.3% | 100% | 92.2% | 88.7% | 104% | 111% | 99.2% | 90.1% | 96.6% | 103% | 98.2% | 97.9% | 99.4% | 108% | 113% | 96.4% | 99.3% | 97.8% | 98.5% | 96.5% | 99% | 99.7% | 98.3% | 97.6% | 107% | > 10 µM | > 10 µM | > 10 µM | > 10 µM | > 10 µM | 0 | 0 | 0 | 0 | 0 |
| CN1C(=O)COc2c(C(=O)NC3CN4CCC3CC4)cc(Cl)cc21 (stereo not given) [azasetron] | 98.4% | 94.9% | 96.6% | 98.7% | 98.5% | 91.4% | 93.1% | 103% | 110% | 111% | 91.6% | 99% | 87.9% | 94.5% | 96.2% | 101% | 91.4% | 95.6% | 99% | 99.2% | 102% | 94.4% | 91.8% | 86.2% | 105% | > 10 µM | > 10 µM | > 10 µM | > 10 µM | > 10 µM | 0 | 0 | 0 | 0 | 0 |
| CCCCc1nc(-c2ccc(OCCCN(CC)CC)cc2)cn1-c1ccc(Oc2ccc(Cl)cc2)cc1 [azeliragon] | 101% | 97% | 99.4% | 93.5% | 4.5% | 109% | 105% | 99.4% | 98.9% | 8.5% | 95.1% | 94.8% | 90.2% | 94% | 0.1% | 97.7% | 97.8% | 98.9% | 91% | 30.4% | 96.2% | 105% | 91.8% | 99.5% | 0% | 2.61 µM | 3.08 µM | 2.69 µM | 2.12 µM | 3.13 µM | 6.3 | 5.2 | 6.4 | 5.3 | 5.7 |
| CC(C)(CCCCCC(O)CCCCCC(C)(C)C(=O)O)C(=O)O [bempedoic-acid] | 98.5% | 95.6% | 96.8% | 96.1% | 95% | 90.2% | 92.3% | 87.2% | 92.1% | 92.6% | 102% | 98.2% | 107% | 98.2% | 102% | 97.6% | 97.2% | 97.7% | 100% | 100% | 106% | 104% | 98% | 100% | 98% | > 10 µM | > 10 µM | > 10 µM | > 10 µM | > 10 µM | 0 | 0 | 0 | 0 | 0 |
| O=C(CCCN1CCC(n2c(=O)[nH]c3ccccc32)CC1)c1ccc(F)cc1 [benperidol] | 102% | 99.2% | 98.1% | 102% | 103% | 101% | 88.1% | 82.4% | 94.4% | 99.1% | 103% | 107% | 107% | 107% | 97.5% | 98.2% | 108% | 98.1% | 106% | 96.1% | 105% | 96.2% | 98% | 100% | 95.9% | > 10 µM | > 10 µM | > 10 µM | > 10 µM | > 10 µM | 0 | 0 | 0 | 0 | 0 |
| CC(COc1ccccc1Cc1ccccc1)N1CCCCC1 (stereo not given) [benproperine] | 90.6% | 106% | 96.4% | 100% | 83.4% | 94.8% | 106% | 89% | 103% | 88.4% | 104% | 109% | 96.5% | 85.7% | 87.9% | 92.8% | 96.3% | 92% | 102% | 89.3% | 112% | 100% | 103% | 101% | 98.1% | > 10 µM | > 10 µM | > 10 µM | > 10 µM | > 10 µM | 0.3 | 0 | 1.5 | 0 | 0 |
| CC(C)(Oc1ccc(CCNC(=O)c2ccc(Cl)cc2)cc1)C(=O)O [bezafibrate] | 102% | 95.7% | 96.8% | 98% | 94.3% | 110% | 98.5% | 108% | 97% | 98.4% | 98.1% | 93.1% | 91.5% | 97.4% | 102% | 102% | 97% | 96.2% | 94% | 98.3% | 106% | 105% | 101% | 104% | 93.4% | > 10 µM | > 10 µM | > 10 µM | > 10 µM | > 10 µM | 0 | 0 | 0 | 0 | 0 |

Source: the supplement of paper PMC13380429
